Measured values as given in patent US20250177481A1, “SCO-spondin-derived polypeptides for enhancing synaptic transmission” (AXOLTIS PHARMA, priority 2021, published 2025).
Positions of bridges follow the written chain, without caps; N, C: chain ends. No end group written: not given here.

Legend:
[1] = tested on: basal excitatory synaptic transmission at CA3-CA1 synapses; assay: fEPSP input-output (I/O) recordings in CA1 of mouse hippocampal slices; format: cell-based, C57Bl6/J mice; details: NX218 250 μg/mL; for Normalized fEPSP slope: normalized to max slope in vehicle, mean of 10 slices
Protocol: Comparison of postsynaptic responses in control versus NX218 peptide conditions were assessed.
Five (C57Bl6/J) male mice 4-5 weeks-old were obtained from Charles River, France and housed in an animal facility. Animal care was compliant with national and local Ethics committee recommendations. Ten Sagittal hippocampal brain slices (2 per mouse) were obtained using standard brain slicing methods (Knobloch et al. 2007). Mice were anesthetized with 5% isoflurane and then decapitated. Brain was dissected out of the cranium and immediately immersed in ice-cold freshly prepared artificial cerebrospinal fluid (aCSF) containing: 124 mM NaCl, 3.75 mM KCl, 2 mM MgSO4, 2 mM CaCl2, 26.5 mM NaHCO3, 1.25 mM NaH2PO4, 10 mM glucose, continuously oxygenated (95% O2, 5% CO2) (pH=7.4) for a total duration of 3-4 minutes. Acute slices (350 μm thick) were prepared using a vibratome (VT 1000S; Leica Microsystems, Bannockburn, IL). Sections were incubated in standard aCSF (124 mM NaCl, 3.75 mM KCl, 2 mM MgSO4, 2 mM CaCl2, 26.5 mM NaHCO3, 1.25 mM NaH2PO4, 10 mM glucose) at room temperature for at least 1 h before recordings.
For electrophysiological recordings, a single slice was placed in the recording chamber (room temperature), submerged and continuously superfused with gassed aCSF (95% O2, 5% CO2; pH=7.4) at a constant rate (2 mL min^−1) for the reminder of the experiment. Extracellular field excitatory postsynaptic potentials (fEPSPs) were recorded in the CA1 stratum radiatum using a glass micropipette filled with aCSF. fEPSPs were evoked by the electrical stimulation of Schaffer collateral-commissural pathway at 0.1 Hz (i.e., a single pulse every 10 s) with a glass stimulating electrode (borosilicate capillary glass with filament, standard wall; OD: 1.5 mm; ID: 0.86 mm; Length: 75 mm; ref: W3 30-0060 from Harvard Apparatus) placed in the stratum radiatum.
After 10 minutes of stabilization, basal synaptic transmission was assessed. […] This procedure was repeated 3 times, 30 seconds interval for each session. A single session final I/O curve was obtained by plotting the averaged rationalised slopes of fEPSPs as a function of the stimulation intensity.
The signal was amplified with an Axopatch 200B amplifier (Molecular Devices, Union City, CA) digitized by a Digidata 1322A interface (Axon Instruments, Molecular Devices, US) and sampled at 10 kHz. Recordings were acquired using Clampex (Molecular Devices) and analyzed with Clampfit (Molecular Devices).
All data was normalized from the fEPSP maximum slope recorded in control condition (during vehicle bath application). […] Potential outliers were identified for exclusion using the following criteria: >3 standard deviations away from the group mean in either direction.

GluN2A = GluN2A level in cortical samples of subchronic PCP mice (WES automated protein analysis); format: in vivo, Swiss CD-1 mice; details: PCP + NX218 5 mg/kg D14; PCP alone 73.44; n=5
Protocol: (§1) PCP (or saline for control group) was administered at a dose of 0.2 mg/kg by subcutaneous injections twice daily for 12 days (day 0 to day 11).
(§2) Approximately 5 minutes after the test, mice were anaesthetized with 5% isoflurane oxygen mixture. Brains were extracted immediately, then the cortex of each hemisphere were collected. Right and left cortices were transferred into clean pre-labelled microtubes and the exact weight of each sample was recorded. Finally, samples were stored at −80° C. for further analysis.
(§3) Brain samples were lysed with a defined buffer lysis consisting of CelLyticMT reagent with 1% of protease and phosphatase inhibitor cocktail (60 μL per well). Lysates were processed at +4° C. and stored at −80° C. at the end of the experiment. For each sample, the quantity of proteins was determined using the micro kit BCA (Pierce). Briefly, lysates were centrifuged and diluted at 1/20 in PBS and mixed, in equal volume, with a micro BCA. After an incubation at 60° C. for 1 hour, the quantity of proteins was measured at 562 nm with a spectrophotometer Nanovue (GE Healthcare) and compared with the standard of Bovine Serum Albumin curve (BSA, Pierce).
(§4) Automated protein analysis were performed using the WES™ system (ProteinSimple®): […]
(§5) Each protein was evaluated independently. […] 5 samples (biological replicates) per condition were analyzed.

pCREB = pCREB protein level in cortical samples of subchronic PCP mice (WES automated protein analysis); format: in vivo, Swiss CD-1 mice; details: PCP + NX218 5 mg/kg D14; PCP alone 44.17; n=5
Protocol: as §1, §2, §3, §4, §5

W-S-G-W-S-S-C-S-R-S-C-G [NX218] (WSGWSSCSRSCG; disulfide 7-11 (inferred))
change of basal excitatory synaptic transmission vs control condition (whole I/O curve) [1]: statistical increase | Normalized fEPSP slope ([1]; stimulation intensity 0 µA): 0.09% | Normalized fEPSP slope ([1]; stimulation intensity 50 µA): 30.78% | Normalized fEPSP slope ([1]; stimulation intensity 100 µA): 71.26% | Normalized fEPSP slope ([1]; stimulation intensity 150 µA): 110.51% | Normalized fEPSP slope ([1]; stimulation intensity 200 µA): 134.44% | Normalized fEPSP slope ([1]; stimulation intensity 250 µA): 149.89% | Normalized fEPSP slope ([1]; stimulation intensity 300 µA): 156.80% | Normalized fEPSP slope ([1]; stimulation intensity 350 µA): 160.72% | Normalized fEPSP slope ([1]; stimulation intensity 400 µA): 164.01% | Normalized fEPSP slope ([1]; stimulation intensity 450 µA): 164.39% | Normalized fEPSP slope ([1]; stimulation intensity 500 µA): 166.29% | Normalized fEPSP slope ([1]; stimulation intensity 550 µA): 167.00% | Normalized fEPSP slope ([1]; stimulation intensity 600 µA): 167.37% | Normalized fEPSP slope ([1]; stimulation intensity 650 µA): 168.66% | Normalized fEPSP slope ([1]; stimulation intensity 700 µA): 169.65% | Normalized fEPSP slope ([1]; stimulation intensity 750 µA): 169.89% | Normalized fEPSP slope ([1]; stimulation intensity 800 µA): 170.46% | Normalized fEPSP slope ([1]; stimulation intensity 850 µA): 171.65% | GluN2A level in cortical samples (GluN2A): 116.46 % of control | pCREB protein level in cortical samples (pCREB): 68.67 % of control
